The values below come from PMC11003925, “Antimicrobial activity and properties of de novo design of short synthetic lipopeptides” (Folia Microbiologica, 2024).

One data set has as its system HEK293T. Description: Cytotoxicity assay (xCELLigence impedance). In kind it is cell-based, human. As to conditions: 24 h exposure. On the procedure: (§1) Experiments were carried out using an xCELLigence RTCA DP Instrument (Roche Diagnostics GmbH, Mannheim, Germany) which was placed into an incubator (37 °C and 5% CO2). Cell proliferation and cytotoxicity experiments were performed using modified 16-well plates (E-plate, Roche Diagnostics GmbH, Mannheim, Germany). Microelectrodes were attached to the bottom of the wells for the impedance-based detection of attachment, spreading, and proliferation of the cells (Stoddart [2011]). This system monitors cellular events in real time without the incorporation of labels by measuring electrical impedance across an interdigitated microelectrode integrated into the bottom of this special tissue culture plate. This impedance measurement improves upon conventional endpoint assays and provides quantitative information about the biological status of the cells, including cell number, adhesion, viability, and morphology. Ninety microliters of cultivation medium was used for the blank sample, and subsequently, 100 µL of HepG2 or HEK293T cell suspension (7 × 10^5 cells/mL) was added and placed into the incubator (37 °C, 95% humidity, 5% CO2). […] Chrysophsin-3 at a concentration of 100 µg/mL was used as a positive control and solvent (deionized water) as a negative control. Subsequent incubation was performed for at least an additional 24 h. The result of the measurement was viability curves. After the measurement, percentages of tissue culture growth inhibition were calculated for all the tested substances, as follows: %inhibition=(1-(ΔϕCIsample)/(ΔϕCIcontrol))·100
(§2) Δ∅CIsample … the difference between the first and last average CI (cell index) values of the tissue culture in the presence of the tested sample.
(§3) Δ∅CIcontrol … the difference between the first and last average CI values of the tissue culture itself.

The next data set deals with HepG2. The experiment in a line: Cytotoxicity assay (xCELLigence impedance). The data set is classed as cell-based, human. The settings on record: 24 h exposure. As for the experimental part: as §1, §2, §3
A further data set relates to E. coli DBM 3001. The data set is classed as cell-based. The settings on record: for IC50: DBM 3001, 25 h. On the procedure:
(§4) A Bioscreen C automated microbiology growth curve analysis system (Growth Curves, Piscataway, NJ, USA) was used for the quantitative determination of antimicrobial activity (minimal inhibitory concentration, MIC) of PAL/LCA-peptides. Optical density was measured with a wide bandpass filter (wavelength range 420–580 nm) at regular intervals and temperatures. This assay was performed in a special microtiter plate (10 × 10 wells) that allowed the simultaneous testing of a large number of samples against several microorganisms. The total testing volume was 100 µL, obtained by mixing 10 µL of microbial culture with OD600 equal to 0.1 with growth medium and a solution of the tested compounds. The positive controls were vancomycin and tetracycline for Bacillus subtilis (100 µg/mL) for Gram-positive bacteria, kanamycin, and tetracycline for Acinetobacter baumannii (100 µg/mL) for Gram-negative bacteria, and clotrimazole or amphotericin (100 µg/mL) for fungi. The maximal concentration of tested lipoproteins was 1 mg/mL. A pure growth medium was used as the negative control. The measurement period was 25 h. The lowest concentration with a 100% inhibition effect for 24 h of incubation was chosen as the MIC. The antibacterial activity of each compound was expressed as the minimum inhibitory concentration MIC (MIC is the lowest concentration of the compound needed to inhibit the growth of bacterial cells) and IC50 (IC50 is the concentration of the compound needed to inhibit the growth of bacterial cells by 50%).

Another data set concerns E. faecalis DBM 3075. In kind it is cell-based. The settings on record: DBM 3075, 25 h. As for the experimental part:
as §4

For the next data set, the system named is Ps. aeruginosa DBM 3081. The data set is classed as cell-based, Pseudomonas aeruginosa. As to conditions: for IC50: 25 h. As for the experimental part:
as §4

The test system of another data set is Staph. aureus MRSA1. In kind it is cell-based, Staphylococcus aureus. As to conditions: for MIC: 24 h; for IC50: 25 h. On the procedure: as §4
For a further data set, the system named is Staph. aureus DBM 3002. In kind it is cell-based, Staphylococcus aureus. As to conditions: for IC50: 25 h. As for the experimental part: as §4
The next data set concerns A. baumannii DBM 3183. The experiment in a line: microbe, parasite or virus in culture. The data set is classed as cell-based, Acinetobacter baumannii. The settings on record: for IC50: DBM 3183, 25 h. On the procedure:
as §4

A further data set deals with B. subtilis DBM 3006. In kind it is cell-based, Bacillus subtilis. The settings on record: for IC50: DBM 3006, 25 h. As for the experimental part: as §4
The next data set has as its system C. tropicalis DBM 2166. In kind it is cell-based, Candida tropicalis. The settings on record: DBM 2166, 25 h. On the procedure: as §4
A further data set deals with M. luteus DBM 3053. The data set is classed as cell-based, Micrococcus luteus. As to conditions: for MIC: DBM 3053, 24 h; for IC50: DBM 3053, 25 h. As for the experimental part:
as §4

A further data set deals with plasmid pGreen 0029. Description: DNA binding assay (gel retardation). As to conditions: circular or linearized forms, tested ratios. On the procedure:
This assay was performed as described by Park et al. ([1998]), with a few modifications. […] The reaction mixture was incubated at room temperature for 1 h. Subsequently, 4 µL of native loading buffer (10% Ficol, 10 mM Tris–HCl (pH 7.5), 50 mM EDTA, 0.25% bromophenol blue) was added. An aliquot was applied to 1% agarose gel electrophoresis in 0.5xTris borate-EDTA buffer. Circular plasmid DNA was isolated from (Luria–Bertani medium with AMPI in final concentration 100 µg/mL) bacterial strain E. coli DH5α / pBluescriptII KS- that had been grown overnight, and linearization was performed overnight by enzymatic reaction using restriction endonuclease EcoRV at 37 °C. The evaluation was performed by visualizing the DNA with the intercalation dye Midori Green Advanced DNA Stain under UV light. Reduced electrophoretic mobility compared to the control is considered to be evidence of peptide binding to DNA.
According to the previous results, we decided to clarify one of the possible molecular interaction mechanisms, the ability of the studied lipopeptides to bind microbial plasmid DNA. Based on the assumption that pore formation is only one of the influencing factors, which arose from previous results, the effect on one of the possible intracellular targets, DNA, was determined. This determination was carried out on isolated plasmid DNA, specifically on two plasmids, pGreen 0029 and pBluescript II KS- in circular and linearized form.

Data set [1] deals with all the tested microorganisms. Description: Microtitre dilution screening at 1 mg/mL. In kind it is cell-based. The settings on record: c = 1 mg/mL, microtitre dilution method. On the procedure:
as §4

≈ marks a conversion by molar mass, not a printed value. Read-outs that look alike come from different tables or passages of the source. Residues, ends and D or L forms follow the SMILES beside them. *: point of attachment. Palmitoyl = CCCCCCCCCCCCCCCC(=O)*

For orientation: % inhibition means the change of the read-out against control, counted positive when it falls. A low value points to a weak effect. In general, IC50 refers to the midpoint of a concentration-inhibition curve. Higher therefore signals weaker potency in that assay. `CCCCCCCCCCCCCCCC(=O)N[C@@H](CC(C)C)C(=O)N[C@H](C(=O)N[C@@H](CCCCN)C(=O)NCC(=O)N[C@@H](C)C(=O)N[C@@H](CCCNC(=N)N)C(N)=O)C(C)C` [SHP-2.2, PAL-LVKGAR-NH2] (Palmitoyl-LVKGAR-NH2): the “% inhibition” value in the data set on HEK293T (c 50 µg/mL) is 11.1 ± 1.7%; in the data set with HEK293T (c 100 µg/mL), 19.3 ± 2.9%; in the data set on HEK293T (c 200 µg/mL) it was 28.6 ± 4.3%; in the data set with HepG2 (c 50 µg/mL), 4.3 ± 0.6%; in the data set on HepG2 (c 100 µg/mL), 11.4 ± 1.7%; in the data set with HepG2 (c 200 µg/mL) it was 18.5 ± 2.8%. Besides, the IC50 entry with E. coli DBM 3001 was “N / > 100.0 µg/mL”; with E. faecalis DBM 3075, “N / > 100.0 µg/mL”; with Ps. aeruginosa DBM 3081 it was “N / > 100.0 µg/mL”; with Staph. aureus MRSA1, 25.0 µg/mL (≈ 28.4 µM); in the data set on Staph. aureus DBM 3002, “N / > 100.0 µg/mL”; in the data set with A. baumannii DBM 3183, “N / > 100.0 µg/mL”. For the same compound, the results for the IC50 entry in the data set on B. subtilis DBM 3006, in the data set on C. tropicalis DBM 2166 and in the data set on M. luteus DBM 3053 were “N / > 100.0 µg/mL”, “N / > 100.0 µg/mL” and 10.0 µg/mL (≈ 11.4 µM), respectively. Also, the MIC is 14.9 µg/mL (≈ 16.9 µM) in the data set with Staph. aureus MRSA1 and 7.0 µg/mL (≈ 7.95 µM) in the data set on M. luteus DBM 3053.
Regarding `CCCCCCCCCCCCCCCC(=O)NCC(=O)N[C@H](C(=O)N[C@@H](CC(C)C)C(=O)N[C@@H](CCCCN)C(=O)N[C@@H](CCCNC(=N)N)C(=O)N[C@@H](C)C(N)=O)C(C)C` [SHP-3.2, PAL-GVLKRA-NH2] (Palmitoyl-GVLKRA-NH2), the “% inhibition” value in the data set on HEK293T (c 50 µg/mL) came to 4.1 ± 0.6%; with HEK293T (c 100 µg/mL), 29.6 ± 4.4%; in the data set with HEK293T (c 200 µg/mL), 0.0 ± 0.3%; in the data set on HepG2 (c 50 µg/mL) it was 17.0 ± 2.6%; in the data set with HepG2 (c 100 µg/mL) it was 20.7 ± 3.1%; in the data set with HepG2 (c 200 µg/mL), 23.2 ± 3.5%. The MIC was 68.7 µg/mL (≈ 78 µM) with E. coli DBM 3001 (DBM 3001, 24 h); 83.6 µg/mL (≈ 95 µM) in the data set with Ps. aeruginosa DBM 3081 (24 h); 6.8 µg/mL (≈ 7.73 µM) against Staph. aureus MRSA1; 8.6 µg/mL (≈ 9.77 µM) with Staph. aureus DBM 3002 (24 h); 41.1 µg/mL (≈ 46.7 µM) with B. subtilis DBM 3006 (DBM 3006, 24 h); 5.8 µg/mL (≈ 6.59 µM) in the data set on M. luteus DBM 3053. The IC50 in the data set on E. coli DBM 3001 is 100.0 µg/mL (≈ 114 µM); in the data set with E. faecalis DBM 3075, “N / > 100.0 µg/mL”; in the data set on Ps. aeruginosa DBM 3081, 100.0 µg/mL (≈ 114 µM); in the data set with Staph. aureus MRSA1, 12.5 µg/mL (≈ 14.2 µM); with Staph. aureus DBM 3002, 30.0 µg/mL (≈ 34.1 µM); in the data set with A. baumannii DBM 3183, “N / > 100.0 µg/mL”. Also, the IC50 with B. subtilis DBM 3006 was 50.0 µg/mL (≈ 56.8 µM); in the data set with C. tropicalis DBM 2166 it was “N / > 100.0 µg/mL”; with M. luteus DBM 3053, 10.0 µg/mL (≈ 11.4 µM). For the same compound, the “influence on electrophoretic mobility of plasmid DNA” value in the data set with plasmid pGreen 0029 is recorded as “did not exhibit any influence”.
For the compound `NC[C@H]1O[C@H](O[C@H]2[C@H](O)[C@@H](O[C@H]3O[C@H](CO)[C@@H](O)[C@H](N)[C@H]3O)[C@H](N)C[C@@H]2N)[C@H](O)[C@@H](O)[C@@H]1O` [kanamycin, reference compound], in the data set on Ps. aeruginosa DBM 3081 (first value of cell 'MIC / IC50', 100% inhibition for 24 h), the MIC stood at 20 µg/mL (≈ 41.3 µM).
In the case of `CN(C)[C@@H]1C(O)=C(C(N)=O)C(=O)[C@@]2(O)C(O)=C3C(=O)c4c(O)cccc4[C@@](C)(O)[C@H]3C[C@@H]12` [tetracycline, reference compound], in the data set with A. baumannii DBM 3183 (Acinetobacter baumannii, DBM3183, first value of cell 'MIC / IC50', lowest concentration with 100% inhibition for 24 h, 100 µL, OD 420–580 nm), the MIC was 10 µg/mL (≈ 22.5 µM).
Turning to GVLKRA-NH2 [SHP-3.1], the growth inhibition entry in the data set on B. subtilis DBM 3006 (c = 1 mg/mL) is given as “One hundred percent”. Also, the “growth inhibition / activity in screening” value (shortened to “growth inhibition / activity”) in [1] is “low activity”.
Regarding “LVKGAR-NH2 [SHP-2.1, primary hexapeptide with C-terminal amidation]”, the “growth inhibition / activity” value in [1] is on record as “low activity”.
With “LVKRAG-NH2 [SHP-1.1, primary hexapeptide with C-terminal amidation]”, the growth inhibition entry with Staph. aureus DBM 3002 (c = 1 mg/mL, Staphylococcus aureus, strain not stated) is reported as “One hundred percent”; with M. luteus DBM 3053 (c = 1 mg/mL) it was “One hundred percent”. In data set [1], the “growth inhibition / activity” value was “low activity”.
